{
  "source": "paper PMC8355244",
  "about": "“A fragment-based approach identifies an allosteric pocket that impacts malate dehydrogenase activity” (Communications Biology, 2021)",
  "key": {"WT PfMDH": {"target": "T1, WT PfMDH (Plasmodium falciparum, UniProt Q6VVP7)", "T1 construct": "The full-length WT PfMDH gene was cloned into pETM-13; made in house; host or cells: E. coli Rosetta 2 (DE3) pLysS", "T1 sequence (Q6VVP7 entry or part of it)": "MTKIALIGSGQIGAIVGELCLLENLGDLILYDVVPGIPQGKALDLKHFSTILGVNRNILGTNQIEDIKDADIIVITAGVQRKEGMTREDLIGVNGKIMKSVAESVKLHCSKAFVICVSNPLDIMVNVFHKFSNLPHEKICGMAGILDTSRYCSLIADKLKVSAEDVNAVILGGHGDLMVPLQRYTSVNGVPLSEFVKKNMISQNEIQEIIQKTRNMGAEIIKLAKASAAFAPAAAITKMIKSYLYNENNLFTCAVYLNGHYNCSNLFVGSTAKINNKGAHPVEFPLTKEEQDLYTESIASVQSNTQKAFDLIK", "test": "Activity screening of 4DT / 4-phenylthiazol-2-amine derivatives (oxidation of malate, absorbance at 340 nm)", "type": "biochemical", "method": "The oxidation of malate to oxaloacetate was assayed spectrophotometrically in flat-bottomed Corning 96-well microplates in a total volume of 250.0 µl in 50 mM glycine buffer pH 10.2[24] with an additional 400 mM NaCl for protein stability. The increase of absorbance at 340 nm was recorded in kinetic mode using a Tecan Spark multimode microplate reader at 298 K. A mastermix of 50 mM NAD+ and 44 μM PfMDH was used for both the screening and kinetics experiments. The final concentration of protein and cofactor were […], respectively. Positive control groups were set (absence of compound) in the same plate as the treated group. The absorbance from the background noise was subtracted from the data and then a linear regression model was employed in order to get the line slope from the first 5 min of the reaction. The percentage of enzymatic activity has been calculated as described by Eq. (1)1 enzymeactivity(%)=slopetreated/slopepositivecontrol*100\n1.3 µL of derivatives of 4-phenylthiazol-2-amine in 100% DMSO were mixed with 237.7 µL of a mastermix of WT PfMDH previously incubated with NAD+. The final compound concentration used in this screening was 500 µM in the presence of 0.5% (v/v) DMSO. The microplate was sealed with silver foil for 1-h incubation at 25–35 °C. Finally, reactions in both the samples and control wells were started upon the addition of 13.0 µL of 5 mM malate). At the end of the experiments, the reaction of the plate was spectrophotometrically assayed at 600 nm in order to identify turbidity due to the low solubility of the compound. All measurements were performed in duplicate."}, "PfMDH": {"target": "T2, PfMDH (Plasmodium falciparum, UniProt Q6VVP7)", "T2 construct": "The full-length WT PfMDH gene was cloned into pETM-13; made in house; host or cells: E. coli Rosetta 2 (DE3) pLysS", "T2 sequence (Q6VVP7 entry or part of it)": "as above", "test": "Thermal shift assay (TSA)", "type": "binding", "details": "for TSA melting curve raw signal: triplicate columns", "method": "The TSA experiment was conducted in a BioRad CSX 96 (Biorad). Each reaction consisted of 1 mM of compound (100 mM stock in 100% (v/v) DMSO) and 10 μM PfMDH in 100 mM Na–phosphate buffer pH 7.4, 400 mM NaCl, and 10× Sypro Orange (Invitrogen) for a total volume of 100 μl. Control experiments were performed with 1% (v/v) DMSO. Inflection points were determined using BioRad CFX96™ control software. Generally, a temperature increase of over 1 °C is interpreted as a result of the stabilization of the protein-ligand interaction. On the contrary, a negative shift is considered a destabilization caused by the fragment."}},
  "note": "Several values for one entry are separate records, joined by “and”; a condition that tells them apart may be missing. Equal entries are not always repeated. Where two headings read alike, the source gives them in different places.",
  "data": [
    {"smiles": "Cc1ccc(-c2csc(N)n2)cc1C", "note": "[compound 5a]", "values": [
      {"measurement": "remaining activity at 500 µM", "setting": "WT PfMDH; 500 µM compound, Dunnett test details, positive control mean 100, n 2, read-out: Mean 2 (mean % enzymatic activity of treated group)", "result": 52, "unit": "%"},
      {"measurement": "inhibition at 500 µM", "setting": "WT PfMDH; 500 µM compound, Dunnett's multiple comparisons test, read-out: Mean Diff. (positive control vs. compound)", "result": 48.5, "unit": "%"},
      {"measurement": "remaining activity at 500 µM", "setting": "WT PfMDH; 500 µM compound, control 100%, replicate 1, read-out: % enzymatic activity repl1", "result": 56, "unit": "%"},
      {"measurement": "remaining activity at 500 µM", "setting": "WT PfMDH; 500 µM compound, control 100%, replicate 2, read-out: % enzymatic activity repl2", "result": 47, "unit": "%"},
      {"measurement": "Slope repl1", "setting": "WT PfMDH; 500 µM compound, linear regression slope of absorbance 340 nm vs time, replicate 1", "result": 0.01855},
      {"measurement": "Slope repl2", "setting": "WT PfMDH; 500 µM compound, linear regression slope of absorbance 340 nm vs time, replicate 2", "result": 0.01659},
      {"measurement": "Slope normalized repl1", "setting": "WT PfMDH; 500 µM compound, slope relative to control = 1, replicate 1", "result": 0.5569},
      {"measurement": "Slope normalized repl2", "setting": "WT PfMDH; 500 µM compound, slope relative to control = 1, replicate 2", "result": 0.4735},
      {"measurement": "remaining activity at 500 µM", "setting": "WT PfMDH; read-out: enzyme activity", "result": 52, "unit": "%"},
      {"measurement": "ΔTm at 1000 µM", "setting": "PfMDH; 1 mM compound vs DMSO control", "result": -4, "unit": "°C"},
      {"measurement": "Tm", "setting": "PfMDH; 1 mM compound, 10 μM PfMDH, DMSO control Tm 58", "result": "54.0 ± 0.2", "unit": "°C"},
      {"measurement": "TSA melting curve raw signal", "setting": "PfMDH; Temperature 25", "result": "4361,22691625664 and 4136,47480077282"},
      {"measurement": "TSA melting curve raw signal", "setting": "PfMDH; Temperature 28.5", "result": "4004,87351225735 and 4183,98281996697 and 3977,18518163549"},
      {"measurement": "TSA melting curve raw signal", "setting": "PfMDH; Temperature 29", "result": "3986,17580138025 and 4159,213140841 and 3954,9246822172"},
      {"measurement": "TSA melting curve raw signal", "setting": "PfMDH; Temperature 29.5", "result": "3965,52273011401 and 4133,77316232738 and 3931,4868089647"},
      {"measurement": "TSA melting curve raw signal", "setting": "PfMDH; Temperature 30", "result": "3942,69196918976 and 4107,074098257 and 3906,46894255822"},
      {"measurement": "TSA melting curve raw signal", "setting": "PfMDH; Temperature 30.5", "result": "3918,20361111847 and 4079,7505229192 and 3880,66961233132"},
      {"measurement": "TSA melting curve raw signal", "setting": "PfMDH; Temperature 31", "result": "3892,85755253156 and 4052,78803951145 and 3854,85757088369"},
      {"measurement": "TSA melting curve raw signal", "setting": "PfMDH; Temperature 31.5", "result": "3868,35453137919 and 4026,78761104422 and 3830,51973110108"},
      {"measurement": "TSA melting curve raw signal", "setting": "PfMDH; Temperature 32", "result": "3846,14582452398 and 4002,89304325356 and 3808,96381740298"},
      {"measurement": "TSA melting curve raw signal", "setting": "PfMDH; Temperature 32.5", "result": "3827,35535230328 and 3981,88234223881 and 3791,26035282333"},
      {"measurement": "TSA melting curve raw signal", "setting": "PfMDH; Temperature 33", "result": "3812,58320085949 and 3964,3028642829 and 3777,54515038218"},
      {"measurement": "TSA melting curve raw signal", "setting": "PfMDH; Temperature 33.5", "result": "3801,69756150235 and 3949,2862317403 and 3767,92816787175"},
      {"measurement": "TSA melting curve raw signal", "setting": "PfMDH; Temperature 34", "result": "3794,14835836044 and 3937,14669832695 and 3761,78012801461"},
      {"measurement": "TSA melting curve raw signal", "setting": "PfMDH; Temperature 34.5", "result": "3789,41768425867 and 3927,49825494442 and 3758,75347546959"},
      {"measurement": "TSA melting curve raw signal", "setting": "PfMDH; Temperature 35", "result": "3787,20107392869 and 3920,20996880984 and 3758,62073564665"},
      {"measurement": "TSA melting curve raw signal", "setting": "PfMDH; Temperature 35.5", "result": "3787,42445071158 and 3914,62343444524 and 3761,24267883563"},
      {"measurement": "TSA melting curve raw signal", "setting": "PfMDH; Temperature 36", "result": "3789,87806432584 and 3911,1710367624 and 3766,28559252083"},
      {"measurement": "TSA melting curve raw signal", "setting": "PfMDH; Temperature 36.5", "result": "3794,85229304264 and 3909,49204056619 and 3773,84282790235"},
      {"measurement": "TSA melting curve raw signal", "setting": "PfMDH; Temperature 37", "result": "3802,25424487634 and 3909,25385384206 and 3783,72084315967"},
      {"measurement": "TSA melting curve raw signal", "setting": "PfMDH; Temperature 37.5", "result": "3812,04395610452 and 3910,368484837 and 3795,67572672777"},
      {"measurement": "TSA melting curve raw signal", "setting": "PfMDH; Temperature 38", "result": "3823,44040340727 and 3913,02621291175 and 3809,89581343172"},
      {"measurement": "TSA melting curve raw signal", "setting": "PfMDH; Temperature 38.5", "result": "3837,03387753428 and 3917,20362777738 and 3826,4956570889"},
      {"measurement": "TSA melting curve raw signal", "setting": "PfMDH; Temperature 39", "result": "3852,32039847376 and 3922,75702566821 and 3845,46925064995"},
      {"measurement": "TSA melting curve raw signal", "setting": "PfMDH; Temperature 39.5", "result": "3869,53236426586 and 3930,26334549594 and 3867,32940969988"},
      {"measurement": "TSA melting curve raw signal", "setting": "PfMDH; Temperature 40", "result": "3888,57436192082 and 3939,63549689652 and 3891,99828571263"},
      {"measurement": "TSA melting curve raw signal", "setting": "PfMDH; Temperature 40.5", "result": "3909,9422248531 and 3951,08452102982 and 3919,26474950283"},
      {"measurement": "TSA melting curve raw signal", "setting": "PfMDH; Temperature 41", "result": "3933,37089433234 and 3964,6560667334 and 3949,14976176316"},
      {"measurement": "TSA melting curve raw signal", "setting": "PfMDH; Temperature 41.5", "result": "3959,61189650686 and 3980,53295877896 and 3981,80921424824"}
    ]}
  ]
}
